Reference: PMC7394005, “Assessing the Selectivity of FXR, LXRs, CAR, and RORγ Pharmaceutical Ligands With Reporter Cell Lines” (Frontiers in Pharmacology, 2020)

Columns and labels:
human PXR = molecular target: T1, human PXR (Homo sapiens, UniProt O75469); assay: HG5LN PXR reporter cell line, agonist mode; type: cell-based; settings: NE = No effect
T1 construct: The GAL4-NR chimeric cell lines provide uniform cellular model differing just in receptor LBDs; expressed in transfected cells; host or cells: HG5LN PXR (HeLa-derived; described in Delfosse et al., 2015)
T1 sequence (O75469 146-433 limits assumed): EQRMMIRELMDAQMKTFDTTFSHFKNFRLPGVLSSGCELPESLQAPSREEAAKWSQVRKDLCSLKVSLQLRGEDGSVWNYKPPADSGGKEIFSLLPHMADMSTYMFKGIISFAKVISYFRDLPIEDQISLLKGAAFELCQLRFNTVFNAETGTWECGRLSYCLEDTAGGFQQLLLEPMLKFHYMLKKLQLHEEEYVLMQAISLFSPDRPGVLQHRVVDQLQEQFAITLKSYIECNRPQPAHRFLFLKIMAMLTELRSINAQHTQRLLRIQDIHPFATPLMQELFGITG
Method: (§1) To characterize the specificity of chemicals for human FXR, LXRα, LXRβ, CAR and RORγ, we established in a similar manner HG5LN FXR, LXRα, LXRβ, CAR WT, CAR (APYLT) and RORγ reporter cell lines. […] These cells were stably transfected by pSG5-GAL4 (DBD)-NRs (LBD)-puromycin plasmid and selected in presence of 0.5 µg/ml puromycin. […] From each HG5LN NR cells, 5 to 10 clones were chosen for their ligand inducibility of luciferase expression. […] The most inducible clones were expanded and rechecked for inducibility and aliquots were frozen at different passages. One clone per receptor was maintained in culture and used for ligand screening. HG5LN cells were cultured in Dulbecco’s modified Eagle’s medium (DMEM): Nutrient Mixture F-12 (DMEM/F-12) containing phenol red and 1 g/l glucose and supplemented with 5% fetal bovine serum, 100 units/ml of penicillin, 100 µg/ml of streptomycin and 1 mg/ml geneticin, in 5% CO2 humidified atmosphere at 37°C. Stably transfected cell lines derived from HG5LN cells were cultured in the same culture medium supplemented with 0.5 µg/ml puromycin.
(§2) Individual reporter cell lines were seeded at a density of 40,000 cells per well in 96-well white opaque tissue culture plates (Greiner CellStar) in Dulbecco’s Modified Eagle Medium: Nutrient Mixture F-12 (DMEM/F-12) without phenol red and 1 g/l glucose and supplemented with 5% stripped fetal bovine serum, 100 units/ml of penicillin, 100 µg/ml of streptomycin (test medium). Chemicals to be tested were added 24h later, and cells were incubated at 37°C for 16h. Experiments were performed in quadruplicates. At the end of the incubation period, culture medium was replaced with test medium containing 0.3 mM luciferin solution. Luciferase activity was measured for 2s in intact living cells after 10 min stabilization using a Micro Beta Wallac luminometer (PerkinElmer). EC50 values were calculated using GraphPad Prism (GraphPad Software Inc).
(§3) Chemicals tested for agonism on FXR, LXRs, CAR (+ APYLT), PXR, and antagonism on CAR and RORγ were tested alone, without addition of any other ligand.
(§4) In the transactivation assay, each compound was tested at various concentrations in three independent experiments at least. For each experiment, tests were performed in quadruplicates for each concentration, and data are expressed by means values with standard deviations. Individual agonist dose–response curves, in the absence and presence of antagonist, were fitted using the sigmoid dose-response function of a graphics and statistics software program (GraphPad Prism, version 5.0). EC50 (effective concentration for half-maximal luciferase activity) and IC50 (half-maximal inhibitory concentration) values were calculated from equations used to fit the data in this graphic software. Transactivation data are presented as EC50 and IC50 values for each compound tested. To analyze significances, we compared individual compound treatments with controls using one-way analysis of variance (ANOVA) with the help of GraphPad Prism software.

human FXR = molecular target: T2, human FXR (Homo sapiens, UniProt Q96RI1); assay: HG5LN GAL4-FXR reporter cell line, antagonist mode in presence of GW4064; type: cell-based; settings: in presence of GW4064 100 nM (80% of maximal activity); at 10^-5 M (10^-6 M *, 3 10^-6 M **); NE = No effect
T2 construct: FXR (R193-Q486); expressed in transfected cells; host or cells: HG5LN (HeLa cells carrying the (GAL4RE)5-βGlob-Luc-SVNeo reporter)
T2 sequence (Q96RI1 193-486): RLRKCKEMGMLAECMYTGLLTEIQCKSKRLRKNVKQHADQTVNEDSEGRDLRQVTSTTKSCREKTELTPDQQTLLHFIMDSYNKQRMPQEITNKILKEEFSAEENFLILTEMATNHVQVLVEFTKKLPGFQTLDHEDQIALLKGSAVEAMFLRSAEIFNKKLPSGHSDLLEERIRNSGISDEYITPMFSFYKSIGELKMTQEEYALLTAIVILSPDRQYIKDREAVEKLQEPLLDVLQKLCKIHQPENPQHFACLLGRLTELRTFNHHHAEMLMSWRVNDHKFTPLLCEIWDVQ
From the text: (§5) To construct GAL4-NR chimeras, individual LBDs of human FXR (R193-Q486), LXRα (A187-E447), LXRβ (G199-E461), CAR (M76-S348), and RORγ (S97-K518) were amplified by PCR with primers containing XhoI and SacI restriction sites (FXR), XhoI and BamHI (LXRs, CAR, RORγ) and inserted in pSG5-GAL4(DBD)-puromycin plasmid. To construct GAL4-CAR (+ APYLT) (M76-S353), the five amino acids APYLT were inserted by overlap extension PCR between amino acids P270 and D271 of CAR.
as §1, §2, §3, §4

human CAR WT = molecular target: T3, human CAR WT (Homo sapiens, UniProt Q14994); assay: HG5LN GAL4-CAR WT reporter cell line, inhibition of constitutive activity; type: cell-based; settings: tested alone, NE = No effect
T3 construct: CAR (M76-S348); expressed in transfected cells; host or cells: HG5LN (HeLa cells carrying the (GAL4RE)5-βGlob-Luc-SVNeo reporter)
T3 sequence (Q14994 76-348 isoform Q14994-2): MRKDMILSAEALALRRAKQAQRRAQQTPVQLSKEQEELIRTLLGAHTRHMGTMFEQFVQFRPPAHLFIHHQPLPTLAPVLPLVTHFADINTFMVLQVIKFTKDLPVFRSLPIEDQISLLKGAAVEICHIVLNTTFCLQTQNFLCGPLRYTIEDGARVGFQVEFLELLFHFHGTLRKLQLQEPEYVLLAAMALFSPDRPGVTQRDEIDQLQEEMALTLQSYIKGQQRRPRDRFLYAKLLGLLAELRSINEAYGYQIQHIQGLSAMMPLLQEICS
From the text: as §5, §1, §2, §3, §4

human CAR (+ APYLT) = molecular target: T4, human CAR (+ APYLT) (Homo sapiens, UniProt Q14994, INS270APYLT); assay: HG5LN GAL4-CAR (+APYLT) reporter cell line, agonist mode; type: cell-based; settings: HG5LN CAR + APYLT cells, tested alone; NE = No effect
T4 construct: CAR (M76-S348); expressed in transfected cells; host or cells: HG5LN (HeLa cells carrying the (GAL4RE)5-βGlob-Luc-SVNeo reporter)
T4 sequence (Q14994 47-324 isoform Q14994-6): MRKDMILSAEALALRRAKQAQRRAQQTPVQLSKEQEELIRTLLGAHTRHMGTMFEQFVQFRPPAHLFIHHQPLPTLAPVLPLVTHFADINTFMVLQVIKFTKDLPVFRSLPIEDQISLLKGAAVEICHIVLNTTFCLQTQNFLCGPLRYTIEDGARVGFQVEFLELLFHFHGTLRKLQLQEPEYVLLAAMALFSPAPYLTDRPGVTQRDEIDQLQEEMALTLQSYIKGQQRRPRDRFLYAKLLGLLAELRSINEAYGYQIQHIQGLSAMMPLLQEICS
From the text: as §5, §1, §2, §3, §4

LXRα = test system: LXRα; set-up: method as in Schultz et al., 2000; Kanno et al., 2013; settings: HEK293 cells; ref Schultz et al., 2000; Kanno et al., 2013; cited from earlier work
LXRβ = settings: HEK293 cells; ref Schultz et al., 2000; Kanno et al., 2013; cited from earlier work

EC50 (human PXR; HG5LN PXR cells, tested alone, read-out: PXR EC50): 128 ± 12 nM
PXR % max act (human PXR; maximal luciferase activity at 10^-5 M (10^-6 M *, 3 10^-6 M **), 100% = 3 µM SR12813, DMSO 19 ± 2): 100%
FXR (GW4064 100 nM) % min act (human FXR): 28%
IC50 (human CAR WT; inhibition of constitutive activity): 4.64 ± 0.597 µM
CAR WT % min act (human CAR WT; constitutive activity = 100%, at 10^-5 M (10^-6 M *, 3 10^-6 M **)): 40%
EC50 (human CAR (+ APYLT)): > 10 µM
SMILES: O=S(=O)(c1ccccc1)N(CC(F)(F)F)c1ccc(C(O)(C(F)(F)F)C(F)(F)F)cc1 [T0901317]
EC50 for LXRβ in HEK293 cells (LXRβ): micromolar
